In patent US20120053053A1, “PYRIMIDINE DERIVATIVES AND THEIR USE AS HERBICIDES” (SYNGENTA CROP PROTECTION, LLC, priority 2009, published 2012):

Tests used:
Assay type in all cases: in vivo
[1] = test system: Setaria faberi (SETFA); assay: Pre-emergence biological efficacy (percentage damage); conditions: Setaria faberi, 312 h, dose 1,000 g/ha, evaluated after 13 days, 100=total damage, 0=no damage
Summary of the method: (§1)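 Pre-emergence spray, 250 or 1000 g/ha, acetone/water 50:50 + 0.5% Tween 20, applied 1 d after sowing in standard soil. Glasshouse 24/16 °C, 14 h light, 65% RH, watered twice daily. Scored day 13, 0–100% damage.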

[2] = test system: Alopecurus myosuroides (ALOMY); assay: as above; conditions: Alopecurus myosuroides, 312 h, dose 1,000 g/ha, evaluated after 13 days, 100=total damage, 0=no damage
Summary of the method: as §1

[3] = test system: Amaranthus retoflexus (AMARE); assay: as above; conditions: Amaranthus retroflexus, 312 h, dose 1,000 g/ha, evaluated after 13 days, 100=total damage, 0=no damage
Summary of the method: as §1

[4] = test system: Ipomea hederaceae (IPOHE); assay: as above; conditions: Ipomoea hederacea, 312 h, dose 1,000 g/ha, evaluated after 13 days, 100=total damage, 0=no damage
Summary of the method: as §1

[5] = test system: Echinochloa crus-galli (ECHCG); assay: as above; conditions: Echinochloa crus-galli, 312 h, dose 1,000 g/ha, evaluated after 13 days, 100=total damage, 0=no damage
Summary of the method: as §1

[6] = test system: Solanum nigrum (SOLNI); assay: as above; conditions: Solanum nigrum, 312 h, dose 1,000 g/ha, evaluated after 13 days, 100=total damage, 0=no damage
Summary of the method: as §1

[7] = test system: Setaria faberi (SETFA); assay: Post-emergence biological efficacy (percentage damage); conditions: Setaria faberi, 312 h, dose 1,000 g/ha, evaluated after 13 days, 100=total damage, 0=no damage
Summary of the method: (§2)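 Applied rates: 250 or 1000 g/ha, sprayed from acetone/water (50:50) with 0.5% Tween 20 onto plants 8 days after sowing. Visual damage rating 13 days later on a 0–100 scale.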

[8] = test system: Alopecurus myosuroides (ALOMY); assay: as above; conditions: Alopecurus myosuroides, 312 h, dose 1,000 g/ha, evaluated after 13 days, 100=total damage, 0=no damage
Summary of the method: as §2

[9] = test system: Amaranthus retoflexus (AMARE); assay: as above; conditions: Amaranthus retroflexus, 312 h, dose 1,000 g/ha, evaluated after 13 days, 100=total damage, 0=no damage
Summary of the method: as §2

[10] = test system: Ipomea hederaceae (IPOHE); assay: as above; conditions: Ipomoea hederacea, 312 h, dose 1,000 g/ha, evaluated after 13 days, 100=total damage, 0=no damage
Summary of the method: as §2

[11] = test system: Echinochloa crus-galli (ECHCG); assay: as above; conditions: Echinochloa crus-galli, 312 h, dose 1,000 g/ha, evaluated after 13 days, 100=total damage, 0=no damage
Summary of the method: as §2

[12] = test system: Solanum nigrum (SOLNI); assay: as above; conditions: Solanum nigrum, 312 h, dose 1,000 g/ha, evaluated after 13 days, 100=total damage, 0=no damage
Summary of the method: as §2

Row | Structure (SMILES) | pest or weed control at 1000 g/ha [1] [%] | pest or weed control at 1000 g/ha [2] [%] | pest or weed control at 1000 g/ha [3] [%] | pest or weed control at 1000 g/ha [4] [%] | pest or weed control at 1000 g/ha [5] [%] | pest or weed control at 1000 g/ha [6] [%] | pest or weed control at 1000 g/ha [7] [%] | pest or weed control at 1000 g/ha [8] [%] | pest or weed control at 1000 g/ha [9] [%] | pest or weed control at 1000 g/ha [10] [%] | pest or weed control at 1000 g/ha [11] [%] | pest or weed control at 1000 g/ha [12] [%]
1 | C=Cc1c(N)nc(-c2ccc(Cl)c(N(C)C)c2F)nc1C(=O)OC(C)c1ccccc1 (stereo not drawn) [Compound 33-394, 4-Amino-2-(4-chloro-3-dimethylamino-2-fluorophenyl)-5-ethenyl-6-(1-phenyl-ethoxy)carbonyl-pyrimidine] | 30 | 20 | 40 | 0 | 30 | 40 | 50 | 30 | 100 | 30 | 60 | 80
2 | C=CCOC(=O)c1nc(-c2ccc(Cl)c(N(C)C)c2F)nc(N)c1C=C [Compound 33-395, 4-Amino-2-(4-chloro-3-dimethylamino-2-fluorophenyl)-5-ethenyl-6-(prop-2-enyloxy)carbonyl-pyrimidine] | 80 | 60 | 100 | 30 | 90 | 100 | 100 | 70 | 100 | 30 | 100 | 100
3 | C=Cc1c(N)nc(-c2ccc(Cl)c(N(C)C)c2F)nc1C(=O)OCCOCC [Compound 33-396, 4-Amino-2-(4-chloro-3-dimethylamino-2-fluorophenyl)-5-ethenyl-6-(2-ethoxy-ethoxy)carbonyl-pyrimidine] | 80 | 70 | 100 | 50 | 90 | 90 | 90 | 70 | 100 | 60 | 100 | 90
4 | C=Cc1c(N)nc(-c2ccc(Cl)c(N(C)C)c2F)nc1C(=O)OCCOCCCC [Compound 33-397] | 90 | 80 | 100 | 50 | 100 | 100 | 90 | 80 | 100 | 80 | 90 | 90
5 | C=Cc1c(N)nc(-c2ccc(F)cc2)nc1C(=O)OC [Compound 41-61, 4-Amino-5-ethenyl-2-(4-fluorophenyl)-6-methoxycarbonyl-pyrimidine] | 10 | 20 | 100 | 40 | 10 | 0 | 10 | 20 | 100 | 60 | 10 | 90
6 | C=Cc1c(N)nc(-c2ccc(F)c(OC)c2)nc1C(=O)OC [Compound 42-61, 4-Amino-5-ethenyl-2-(4-fluoro-3-methoxyphenyl)-6-methoxycarbonyl-pyrimidine] | 20 | 10 | 60 | 0 | 10 | 20 | 40 | 30 | 100 | 10 | 30 | 30
7 | C=Cc1c(N)nc(-c2ccc(F)c(C(F)(F)F)c2)nc1C(=O)OC [Compound 43-61, 4-Amino-5-ethenyl-2-(4-fluoro-3-trifluoromethyl-phenyl)-6-methoxycarbonyl-pyrimidine] | 50 | 30 | 60 | 10 | 70 | 70 | 20 | 30 | 20 | 10 | 30 | 70
8 | C=Cc1c(N)nc(-c2ccc(F)c(Cl)c2)nc1C(=O)OC [Compound 44-61, 4-Amino-2-(3-chloro-4-fluorophenyl)-5-ethenyl-6-methoxycarbonyl-pyrimidine] | 30 | 20 | 50 | 10 | 40 | 40 | 60 | 40 | 100 | 30 | 50 | 90
9 | C=Cc1c(N)nc(-c2ccc(F)c(C)c2)nc1C(=O)OC [Compound 45-61, 4-Amino-5-ethenyl-2-(4-fluoro-3-methylphenyl)-6-methoxycarbonyl-pyrimidine] | 50 | 50 | 100 | 0 | 40 | 40 | 50 | 50 | 100 | 30 | 40 | 70
10 | C=Cc1c(N)nc(-c2ccc(OC(F)(F)F)cc2)nc1C(=O)OC [Compound 47-61, 4-Amino-5-ethenyl-6-methoxycarbonyl-2-(4-trifluoromethoxy-phenyl)-pyrimidine] | 0 | 0 | 0 | 0 | 0 | 0 | 10 | 10 | 100 | 10 | 10 | 70
11 | COC(=O)c1nc(-c2ccc(C)c(OC)c2F)nc(N)c1C [Compound 60-41] | 10 | 20 | 0 | 10 | 10 | 40 | 10 | 40 | 100 | 40 | 30 | 100
12 | C=Cc1c(N)nc(-c2cc(F)cc(Cl)c2)nc1C(=O)OC [Compound 61-61, 4-Amino-2-(3-chloro-5-fluorophenyl)-5-ethenyl-6-methoxycarbonyl-pyrimidine] | 0 | 0 | 0 | 0 | 0 | 30 | 0 | 0 | 10 | 0 | 0 | 20
13 | C=Cc1c(N)nc(SC)nc1C(=O)OC [Compound 62-61, 4-amino-5-ethenyl-6-methoxycarbonyl-2-methylthiopyrimidine] | 0 | 0 | 100 | 100 | 0 | 100 | 10 | 0 | 100 | 90 | 0 | 90
